Results reported in ChEMBL document CHEMBL5335855, “Structure-Activity Relationships of Natural C-9-Methyl-Substituted 10-Membered Lactones and Their Semisynthetic Derivatives” (J Nat Prod, 2024).
In brackets after ≈: the same amount, converted by molar mass. Several values for one entry are separate records, joined by “and”; a condition that tells them apart may be missing. Equal entries are not always repeated.

Tests used:
[1] = system: Bacillus subtilis; test: Antibacterial activity against Bacillus subtilis NCTC […] assessed as zone of inhibition at 100 ug per disc incubated for 24 hrs by agar diffusion assay; format: functional; conditions: read-out: DIZ
[2] = Phytotoxicity in Sonchus arvensis assessed as diameter of lesions at 2 mg/ml incubated for 120 hrs by leaf puncture assay; format: toxicity
[3] = system: Paramecium caudatum; test: Toxicity in Paramecium caudatum; format: organism-based; conditions: in vivo
[4] = Cytotoxicity against Spodoptera frugiperda Sf9 cells incubated for 24 hrs by trypan blue staining based assay; format: toxicity, cell-based; conditions: read-out: LC50
[5] = system: Aphididae; test: Aphicidal activity against insects at 1 mg/ml measured after 24 hrs; format: functional
[6] = Toxicity in Galleria mellonella larvae upto 420 mg/kg treated for 14 days in dark; format: organism-based; conditions: in vivo, 336 h, time 14 day
[7] = system: MCF7; test: Cytotoxicity against human MCF7 cells measured after 24 hrs by MTT assay; format: functional, cell-based; conditions: MCF7, 24 h
[8] = Cytotoxicity against mouse LP07 cells measured after 24 hrs by MTT assay; format: functional, cell-based; conditions: LP07, 24 h
[9] = Cytotoxicity against mouse LM3 cells measured after 24 hrs by MTT assay; format: functional, cell-based; conditions: LM3, 24 h
[10] = Toxicity in Galleria mellonella larvae treated for 14 days in dark; conditions: 336 h, time 14 day
[11] = system: Schizaphis graminum; test: Aphicidal activity against Schizaphis graminum at 1 mg/ml measured after 24 hrs; format: functional

SMILES | zone of inhibition at 100 µg/disc [1] [mm] | Activity [2] [mm] | Activity [3] | CC50 at 24 h [4] | mortality at 1000 µg/mL [5] [%] | Activity [6] | IC50 [7] [µg/mL] | IC50 [8] [µg/mL] | IC50 [9] [µg/mL] | LC50 [10] [mg/kg] | mortality at 1000 µg/mL [11] [%]
C[C@@H]1C[C@H](O)/C=C/C(=O)/C=C\C(=O)O1 | 45 | 4.3 | Non-Toxic | < 1 µg/mL and < 5 µM | 10 | Non-Toxic | – | – | – | – | –
C[C@H]1OC(=O)CCC(=O)C[C@H](O)[C@H]2O[C@H]21 | 0 | 1.1 | – | – | 13 | Non-Toxic | – | – | – | – | –
C[C@@H]1C[C@H](O)/C=C/[C@@H](O)/C=C\C(=O)O1 [MODIOLIDE A] | – | – | – | – | – | – | 61 (≈ 308 µM) | > 125 | 292 (≈ 1470 µM) | – | –
C[C@@H]1CC[C@@H](O)/C=C/C=C\C(=O)O1 [STAGONOLIDE E] | 0 | 1.7 | – | – | 67 | Non-Toxic | – | – | – | – | –
C[C@@H]1CC[C@@H](O)CCCCC(=O)O1 | 0 | 0 | – | > 100 µg/mL and > 540 µM | 0 | Non-Toxic | – | – | – | – | –
C[C@@H]1CC[C@@H](O)[C@@H]2O[C@H]2/C=C\C(=O)O1 | 0 | 5.5 | – | > 100 µg/mL and > 500 µM | 8 | Non-Toxic | – | – | – | – | –
CCC[C@H]1OC(=O)CCC/C=C/C(=O)[C@@H]1O [STAGONOLIDE] | 38 | 6.4 | – | 3 µg/mL and 13 µM | – | – | – | – | – | 300 | 15
C[C@H]1OC(=O)CC[C@H](O)/C=C/[C@H]2O[C@@H]12 | 0 | 0 | – | – | 0 | Non-Toxic | – | – | – | – | –
CC(=O)O[C@@H]1CC[C@@H](C)OC(=O)/C=C\[C@@H]2O[C@H]21 | 0 | 5.2 | – | > 100 µg/mL and > 420 µM | 23 | Non-Toxic | – | – | – | – | –
CCC[C@H]1OC(=O)CCC/C=C/[C@H](O)[C@@H]1O [HERBARUMIN I] | 0 | 4.8 | – | – | – | Non-Toxic | – | – | – | – | 54
C[C@@H]1CC[C@@H](O)[C@H](O)CCCC(=O)O1 | 0 | 0 | – | – | 33 | Non-Toxic | – | – | – | – | –
CC(=O)O[C@H]1/C=C/C=C\C(=O)O[C@H](C)CC1 | 0 | 0 | – | – | 55 | – | – | – | – | 160 | –
C[C@@H]1CCC(=O)CCCCC(=O)O1 | 0 | 0 | – | > 100 µg/mL and > 540 µM | – | Non-Toxic | – | – | – | – | –
